# From patent EP4725946A1, “IRAK4 DEGRADATION AGENT AND USE THEREOF” (Guangzhou Unirise Pharmaceutical Co., Ltd., priority 2023, dated 2024)
# Read-outs that look alike come from different tables or passages of the source.
# Experiments:
# IRAK4 protein = target: T1, IRAK4 protein (Homo sapiens, UniProt Q9NWZ3); test: IRAK4 Degradation Assay in THP-1 Cells (Western Blot); assay type: cell-based; parameters: endogenous in cells; host or cells: THP-1 cells
# T1 sequence (Q9NWZ3 1-460): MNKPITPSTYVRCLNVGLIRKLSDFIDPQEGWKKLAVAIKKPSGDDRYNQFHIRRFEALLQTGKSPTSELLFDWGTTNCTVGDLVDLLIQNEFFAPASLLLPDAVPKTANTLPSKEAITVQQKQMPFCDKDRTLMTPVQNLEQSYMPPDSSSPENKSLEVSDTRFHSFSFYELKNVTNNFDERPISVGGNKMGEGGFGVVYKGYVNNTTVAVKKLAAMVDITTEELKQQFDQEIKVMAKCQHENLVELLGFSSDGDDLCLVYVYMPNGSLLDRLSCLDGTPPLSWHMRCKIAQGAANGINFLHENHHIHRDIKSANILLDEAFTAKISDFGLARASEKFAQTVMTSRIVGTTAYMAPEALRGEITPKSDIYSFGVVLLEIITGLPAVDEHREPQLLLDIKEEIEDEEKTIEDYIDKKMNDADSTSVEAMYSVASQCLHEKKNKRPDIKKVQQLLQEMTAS
# Description: In a 6-well cell culture plate, an appropriate number of THP-1 cells were seeded. The plate was placed in a 5% CO2 incubator at 37°C for overnight culture. Then, the test compound's dimethyl sulfoxide solution was added, with the final concentration ranging from 0.0128 to 1000 nM. After continuous culture for 24 hours, the culture medium was removed, and the cells were collected in a 1.5 mL centrifuge tube. After adding lysis buffer and grinding thoroughly, the mixture was placed on ice for 30 minutes. It was then centrifuged at 15,000 xg and 4°C for 20 minutes. The supernatant was taken, and the level of IRAK4 protein was detected by Western Blot.
# [1] = Pharmacokinetic study in mice; assay type: in vivo; conditions: male mice, plasma
# Description: Six male mice weighing 20-30 g were randomly divided into two groups. One group received an intravenous (IV) administration of the test compound at a dose of 2 mg/kg, while the other group received an oral (gavage) administration at a dose of 10 mg/kg. Blood samples were collected at 0.083, 0.25, 0.5, 1, 2, 4, 6, 8, and 24 hours post-administration. Plasma samples were processed and analyzed using LC/MS/MS in MRM)mode. A validated standard curve was established for the quantitative determination of the target compound in plasma, enabling the generation of plasma drug concentration-time profiles. Pharmacokinetic parameters were calculated using WinNonlin software with a non-compartmental model.
# [2] = THP-1, THP-1 cells, 24 hours, 0.0128 to 1000 nM, IRAK4 protein level by Western Blot, read-out: Dmax%
# [3] = THP-1 cells, 24 hours, 0.0128 to 1000 nM, IRAK4 protein level by Western Blot, read-out: DC50
# [4] = mouse, iv, i.v. (2 mg/kg), read-out: AUC0-t
# [5] = mouse, po, p.o. (10 mg/kg), read-out: AUC0-t
# [6] = mouse, po, p.o. (10 mg/kg), read-out: Cmax
# [7] = THP-1 cells, 24 hours, 0.0128 to 1000 nM, IRAK4 protein level by Western Blot, read-out: Dmax%
DC50 (IRAK4 protein; [3]) [nM],"half-life ([1]; mouse, iv, i.v. (2 mg/kg)) [min]","Tmax ([1]; mouse, po, p.o. (10 mg/kg)) [h]",Dmax (IRAK4 protein; [7]) [%],AUC(0-t) ([1]; i.v. (2 mg/kg)) [ng·h/mL],T1/2 ([1]; i.v. (2 mg/kg)) [h],AUC(0-t) ([1]; p.o. (10 mg/kg)) [ng·h/mL],Cmax ([1]; p.o. (10 mg/kg)) [ng/mL],T1/2 ([1]; p.o. (10 mg/kg)) [h],Structure (SMILES),Dmax (IRAK4 protein; [2]) [%],"AUC(0-t) [1, 4] [ng·h/mL]","half-life ([1]; mouse, po, p.o. (10 mg/kg)) [min]","AUC(0-t) [1, 5] [ng·h/mL]","Cmax [1, 6] [ng/mL]",DC50 (IRAK4 protein) [nM],Dmax (IRAK4 protein; THP-1) [%]
3.32,202,4,90.5,–,–,–,–,–,Cn1c(=O)n(C2CCC(=O)NC2=O)c2cccc(C#CCO[C@H]3CC[C@H](CN4CCC5(CC4)Cc4cc(NC(=O)c6cnn7cc(Cl)cnc67)c(N6CCC(CO)CC6)cc4O5)CC3)c21 (stereo partly drawn) [Compound 37],–,12100,236,29300,2150,–,–
2.27,170,2,86.5,–,–,–,–,–,Cc1cnc2c(C(=O)Nc3cc4c(cc3N3CCC(CO)CC3)OC3(CCN(C[C@H]5CC[C@H](OCC#Cc6cccc7c6n(C)c(=O)n7C6CCC(=O)NC6=O)CC5)CC3)C4)cnn2c1 (stereo partly drawn) [Compound 36],–,8730,193,18000,1740,–,–
1.37,–,4,87,14148,2.76,42143,3493,3.82,Cn1c(=O)n(C2CCC(=O)NC2=O)c2cccc(C#CCO[C@H]3CC[C@H](CN4CCC5(CC4)Cc4cc(NC(=O)c6cnn7cccnc67)c(N6CCC(O)CC6)cc4O5)CC3)c21 (stereo partly drawn) [Compound 46],–,–,–,–,–,–,–
3.86,128,2,90.5,–,–,–,–,–,Cn1c(=O)n(C2CCC(=O)NC2=O)c2cccc(C#CCO[C@H]3CC[C@H](CN4CCC5(CC4)Cc4cc(NC(=O)c6cnn7cccnc67)c(N6CCC(C(C)(C)O)CC6)cc4O5)CC3)c21 (stereo partly drawn) [Compound 41],–,5120,157,21200,2990,–,–
2.81,–,4,88.8,11671,4.07,26962,2277,4.27,Cn1c(=O)n(C2CCC(=O)NC2=O)c2cccc(C#CCO[C@H]3CC[C@H](CN4CCC5(CC4)Cc4cc(NC(=O)c6cnn7cc(F)cnc67)c(N6CCC(CO)CC6)cc4O5)CC3)c21 (stereo partly drawn) [Compound 38],–,–,–,–,–,–,–
2.22,1330,6,86,–,–,–,–,–,Cn1c(=O)n(C2CCC(=O)NC2=O)c2cccc(CN3CCC(CCN4CCC5(CC4)Oc4cc(NC(=O)c6cnn7cccnc67)c(N6CCC(CO)CC6)cc4O5)CC3)c21 (stereo not drawn) [Compound 15],–,14400,1420,23200,1320,–,–
1.52,121,2,87.4,3192,–,7391,1190,4.40,Cn1c(=O)n(C2CCC(=O)NC2=O)c2cccc(C#CCO[C@H]3CC[C@H](CN4CCC5(CC4)Cc4cc(NC(=O)c6cnc7cccnn67)c(N6CCC(CO)CC6)cc4O5)CC3)c21 (stereo partly drawn) [Compound 45],–,–,–,–,–,–,–
4.69,227,2,93.4,10556,–,23388,–,4.34,Cn1c(=O)n(C2CCC(=O)NC2=O)c2cccc(C#CCO[C@H]3CC[C@H](CN4CCC5(CC4)Cc4cc(NC(=O)c6coc7cccnc67)c(N6CCC(CO)CC6)cc4O5)CC3)c21 (stereo partly drawn) [Compound 35],–,–,–,–,2070,–,–

Structure (SMILES),DC50 (IRAK4 protein; [3]) [nM],"half-life ([1]; mouse, iv, i.v. (2 mg/kg)) [min]","Tmax ([1]; mouse, po, p.o. (10 mg/kg)) [h]",Dmax (IRAK4 protein; [7]) [%],AUC(0-t) ([1]; i.v. (2 mg/kg)) [ng·h/mL],T1/2 ([1]; i.v. (2 mg/kg)) [h],AUC(0-t) ([1]; p.o. (10 mg/kg)) [ng·h/mL],Cmax ([1]; p.o. (10 mg/kg)) [ng/mL],T1/2 ([1]; p.o. (10 mg/kg)) [h],Dmax (IRAK4 protein; [2]) [%],"AUC(0-t) [1, 4] [ng·h/mL]","half-life ([1]; mouse, po, p.o. (10 mg/kg)) [min]","AUC(0-t) [1, 5] [ng·h/mL]","Cmax [1, 6] [ng/mL]",DC50 (IRAK4 protein) [nM],Dmax (IRAK4 protein; THP-1) [%]
Cn1nc(N2CCC(=O)NC2=O)c2cc(F)c(N3CCC(O)(CC(=O)N4CCC5(CC4)Cc4cc(NC(=O)c6cnn7cccnc67)c(N6CCC(CO)CC6)cc4O5)CC3)cc21 [Example 77],1.28,281,1,–,–,–,–,–,–,85.7,12900,231,38200,4830,–,–
Cn1c(=O)n(C2CCC(=O)NC2=O)c2cccc(C#CCO[C@H]3CC[C@H](CN4CCC5(CC4)Cc4cc(NC(=O)c6cnn7cccnc67)c(N6CCC(CO)CC6)cc4O5)CC3)c21 (relative stereo) [Compound 34],2.2,–,2,–,7155,2.69,14793,1540,3.70,90.6,–,–,–,–,–,–
Cn1c(=O)n(C2CCC(=O)NC2=O)c2cccc(N3CCN(C(=O)CN4CCC5(CC4)Cc4cc(NC(=O)c6cnn7cccnc67)c(N6CCC(CO)CC6)cc4O5)CC3)c21 (stereo not drawn) [Compound 70],–,186,2,–,–,–,–,–,–,–,7880,137,6680,870,1.1,91.2
Cn1c(=O)n(C2CCC(=O)NC2=O)c2cccc(C#CCO[C@H]3CC[C@@H](CN4CCC5(CC4)Cc4cc(NC(=O)c6cnn7cccnc67)c(N6CCC(CO)CC6)cc4O5)CC3)c21 (relative stereo) [Compound 55],3.44,180,1,–,–,–,–,–,–,89.3,6190,202,10000,1120,–,–
Cn1c(=O)n(C2CCC(=O)NC2=O)c2cccc(N3CCN(CCN4CCC5(CC4)Cc4cc(NC(=O)c6cnn7cccnc67)c(N6CCC(CO)CC6)cc4O5)CC3)c21 (stereo not drawn) [Example 95],–,130,2,–,–,–,–,–,–,–,4570,167,11100,1210,0.89,95
Cn1c(=O)n(C2CCC(=O)NC2=O)c2cccc(N3CCC(CN4CCC5(CC4)Cc4cc(NC(=O)c6cnn7cccnc67)c(N6CCC(CO)CC6)cc4O5)CC3)c21 (stereo not drawn) [Example 78],0.86,1980,1,–,–,–,–,–,–,94,32700,395,44900,2600,–,–
Cn1nc(N2CCC(=O)NC2=O)c2cccc(CN3CCC(CCN4CCC5(CC4)Cc4cc(NC(=O)c6coc7cccnc67)c(N6CCC(CO)CC6)cc4O5)CC3)c21 [Compound 62],7.34,–,–,–,–,–,–,–,–,82.8,–,–,–,–,–,–
